Laboratory results from US4758555A, “Method for treating convulsions and epilepsy with organic copper compounds” (priority 1986, dated 1988).

Legend:
[1] = Subcutaneous Pentylenetetrazol (Metrazol) Seizure Threshold Test; type: in vivo, male Carworth Farms #1 mice or Sprague-Dawley rats; conditions: for Lowest effective dose, Metrazol (Phase I): Table X; for Protection against Metrazol-induced seizures (in words): running text; for Anticonvulsant activity, Metrazol (Phase I): Table IV
[2] = Maximal Electroshock Seizure Test; type: in vivo, male Carworth Farms #1 mice or Sprague-Dawley rats; conditions: for ED50: Mus musculus, read-out: ED50 for inhibition of seizures, MES (Phase II)
[3] = Table X, IP, challenge time 30 min
[4] = Table X, IP, challenge time 4 hrs
[5] = Table X, SC, challenge time 30 min
[6] = Table X, SC, challenge time 4 hrs

Compound	Lowest effective dose, Metrazol (Phase I) ([1]; IP, challenge time 30 min)	Lowest effective dose, Metrazol (Phase I) ([1]; IP, challenge time 4 hrs)	Lowest effective dose, Metrazol (Phase I) ([1]; SC, challenge time 30 min)	Lowest effective dose, Metrazol (Phase I) ([1]; SC, challenge time 4 hrs)	Lowest effective dose, MES (Phase I) [2, 3]	Lowest effective dose, MES (Phase I) [2, 4]	Lowest effective dose, MES (Phase I) [2, 5]	Lowest effective dose, MES (Phase I) [2, 6]	other results
Cu(II)5-ethyl-5-phenylhydantoin(CH3 OH)	100 milligrams per kilogram of bod	I	100 milligrams per kilogram of bod	300 milligrams per kilogram of bod	100 milligrams per kilogram of bod	100 milligrams per kilogram of bod	100 milligrams per kilogram of bod	30 milligrams per kilogram of bod	
CCC1(c2ccccc2)C(=O)[N-]C(=O)NC1=O.CCC1(c2ccccc2)C(=O)[N-]C(=O)NC1=O.[Cu+2].c1c[nH]cn1.c1c[nH]cn1 [Cu(II)(Phenobarbital)2 (imidazole)2]	300 milligrams per kilogram of bod	30 milligrams per kilogram of bod	100 milligrams per kilogram of bod	100 milligrams per kilogram of bod	100 milligrams per kilogram of bod	100 milligrams per kilogram of bod	I	100 milligrams per kilogram of bod	
CCC1(CCC(C)C)C(=O)[N-]C(=O)NC1=O.CCC1(CCC(C)C)C(=O)[N-]C(=O)NC1=O.O.O.[Cu+2] [Cu(II)(Amobarbital)2 (H2 O)2]	100 milligrams per kilogram of bod	I	100 milligrams per kilogram of bod	I	100 milligrams per kilogram of bod	I	300 milligrams per kilogram of bod	I	
CCC1(c2ccccc2)C(=O)[N-]C(=O)NC1=O.CCC1(c2ccccc2)C(=O)[N-]C(=O)NC1=O.CCC1(c2ccccc2)C(=O)[N-]C(=O)NC1=O.CCC1(c2ccccc2)C(=O)[N-]C(=O)NC1=O.O.O.O.O.O.O.O.O.O.O.O.[Cu+2].[Cu+2] [Cu(II)(Phenobarbital)2 (H2 O)5.5]	5 milligrams per kilogram of bod	5 milligrams per kilogram of bod	30 milligrams per kilogram of bod	30 milligrams per kilogram of bod	30 milligrams per kilogram of bod	30 milligrams per kilogram of bod	30 milligrams per kilogram of bod	30 milligrams per kilogram of bod	
C[C@@H](O)[C@H](N)C(=O)[O-].N[C@@H](CO)C(=O)[O-].[Cu+2] [Cu(II)(L-threoninate)(L-serinate)]									Protection against Metrazol-induced seizures (in words) [1]: effective against the Metrazol-induced seizure at all doses studied and at both time intervals, 30 minutes and 4 hours
CC(=O)Oc1ccccc1C(=O)[O-].CC(=O)Oc1ccccc1C(=O)[O-].[Cu+2].c1ccncc1.c1ccncc1 [Cu(II)(acetylsalicylate)2 (pyridine)2]									Anticonvulsant activity, Maximal Electroshock (Phase I) ([2]; Table I, SC): I
C[C@@H](O)[C@H](N)C(=O)[O-].C[C@H](N)C(=O)[O-].[Cu+2] [Cu(II)(L-threoninate)(L-alaninate)]									Protection against Metrazol-induced seizures (in words) [1]: effective against the Metrazol-induced seizure at all doses studied and at both time intervals, 30 minutes and 4 hours
C[C@@H](O)[C@H](N)C(=O)[O-].C[C@@H](O)[C@H](N)C(=O)[O-].O.[Cu+2] [Cu(II)(L-threoninate)2 H2 O]									Protection against Metrazol-induced seizures (in words) [1]: effective against the Metrazol-induced seizure at all doses studied and at both time intervals, 30 minutes and 4 hours
CC(=O)Oc1ccccc1C(=O)[O-].CC(=O)Oc1ccccc1C(=O)[O-].CS(C)=O.CS(C)=O.[Cu+2] [Cu(II)(acetylsalicylate)2 (dimethylsulfoxide)2]									Anticonvulsant activity, Maximal Electroshock (Phase I) ([2]; Table I, SC): I
[Cu+2].[O-]c1ccccc1C=NCCN=Cc1ccccc1[O-] [Cu(II) bissalicylatoethyleneimine]									Anticonvulsant activity, Metrazol (Phase I) ([1]; SC): I; Anticonvulsant activity, Maximal Electroshock (Phase I) ([2]; Table IV, IP): I; Anticonvulsant activity, Maximal Electroshock (Phase I) ([2]; Table IV, SC): I
CCC1(CCC(C)C)C(=O)[N-]C(=O)NC1=O.CCC1(CCC(C)C)C(=O)[N-]C(=O)NC1=O.[Cu+2].c1ccncc1.c1ccncc1 [Cu(II)(Amobarbital)2 (pyridine)2]	100 milligrams per kilogram of bod	30 milligrams per kilogram of bod	600 milligrams per kilogram of bod	600 milligrams per kilogram of bod	300 milligrams per kilogram of bod	300 milligrams per kilogram of bod	I	100 milligrams per kilogram of bod	
Cu(II)(L-cystinate)2 H2 O									Protection against Metrazol-induced seizures (in words) [1]: effective against the Metrazol-inducedseizure at all three doses studied but only at the shorter time period
Cu(II) Salicylidene-L-histidinate									Anticonvulsant activity, Metrazol (Phase I) ([1]; IP): I; Anticonvulsant activity, Maximal Electroshock (Phase I) ([2]; Table IV, IP): I; Anticonvulsant activity, Maximal Electroshock (Phase I) ([2]; Table IV, SC): I
CCCC(C)C1(CC)C(=O)[N-]C(=S)NC1=O.CCCC(C)C1(CC)C(=O)[N-]C(=S)NC1=O.[Cu+2] (stereo not shown) [Cu(II)(N--thiopental)2 (H2 O)2.5]	I	I	I	30 milligrams per kilogram of bod	I	I	I	I	
CC(=O)Oc1ccccc1C(=O)O [Aspirin, acetylsalicylate, reference compound]									Anticonvulsant activity, Metrazol ([1]; Table VI, IP): I; Anticonvulsant activity, Maximal Electroshock ([2]; Table VI, IP): I
O=C([O-])c1cc(Cl)ccc1O.O=C([O-])c1cc(Cl)ccc1O.[Cu+2] [Cu(II)(5-chlorosalicylate)2]									Anticonvulsant activity, Maximal Electroshock (Phase I) ([2]; Table II, IP): I
O=C1CN=C(c2ccccc2Cl)c2cc([N+](=O)[O-])ccc2N1 [Clonazepam, reference compound]									ED50 ([1]; Mus musculus, ip, read-out: ED50 for inhibition of seizures, Metrazol (Phase II)): 0.2 mg/kg; ED50 ([2]; ip): 19 mg/kg
CCC1(c2ccccc2)NC(=O)NC1=O.CO.[OH][Cu][Cl] (stereo not shown) [Cu(II)5-ethyl-5-phenylhydantoin(HO)(Cl)(CH3 OH)]	30 milligrams per kilogram of bod	I			30 milligrams per kilogram of bod	I			
CCC1(CCC(C)C)C(=O)[N-]C(=O)NC1=O.CCC1(CCC(C)C)C(=O)[N-]C(=O)NC1=O.[Cu+2].c1c[nH]cn1.c1c[nH]cn1 [Cu(II)(Amobarbital)2 (imidazole)2]	300 milligrams per kilogram of bod	I	I	600 milligrams per kilogram of bod	600 milligrams per kilogram of bod	I	I	I	
N[C@@H](Cc1ccccc1)C(=O)[O-].N[C@@H](Cc1ccccc1)C(=O)[O-].[Cu+2] [Cu(II)(L-phenylalaninate)2]									Protection against Metrazol-induced seizures (in words) [1]: effective against the Metrazol-inducedseizure at all three doses studied but only at the shorter time period
Cu(II)n (Phenobarbital)n (pyridine)2n (H2 O)3n			30 milligrams per kilogram of bod	30 milligrams per kilogram of bod					
CC(C)[C@H](N)C(=O)[O-].CC(C)[C@H](N)C(=O)[O-].O.[Cu+2] [Cu(II)(L-valinate)2 H2 O]									Protection against Metrazol-induced seizures (in words) [1]: effective against the Metrazol-induced seizure at all doses studied and at both time intervals, 30 minutes and 4 hours
NC(=O)N1c2ccccc2C=Cc2ccccc21 [Carbamazepine, reference compound]									ED50 ([2]; Table X, IP, at time of peak activity): 9 mg/kg
CCCC(C)C1(CC)C(=O)N=C([S-])NC1=O.CCCC(C)C1(CC)C(=O)N=C([S-])NC1=O.O.O.[Cu+2] (stereo not shown) [Cu(II)(S--thiopental)2 (H2 O)2]	I	I	I	I	I	I	I	I	
C[C@H](N)C(=O)[O-].C[C@H](N)C(=O)[O-].[Cu+2] [Cu(II)(L-alaninate)2]									Protection against Metrazol-induced seizures (in words) [1]: effective against the Metrazol-induced seizure at all doses studied and at both time intervals, 30 minutes and 4 hours
Cu(II)n (Phenobarbital)n (H2 O)2n (H2 O)3n			30 milligrams per kilogram of bod	30 milligrams per kilogram of bod			100 milligrams per kilogram of bod	30 milligrams per kilogram of bod	
Cu(II)5-ethyl-5-phenylhydantoin(H2 O)2.5	300 milligrams per kilogram of bod	100 milligrams per kilogram of bod	30 milligrams per kilogram of bod	100 milligrams per kilogram of bod	100 milligrams per kilogram of bod	100 milligrams per kilogram of bod	100 milligrams per kilogram of bod	30 milligrams per kilogram of bod	
